The source of these data is US6610681B1, “Neurotherapeutic clavulanate composition and method” (Revaax Pharmaceuticals, LLC, priority 1999, dated 2003).

Data set [1] has as its system rats. The data set can be described thus: Morris water maze, spatial navigation. In kind it is in vivo, rat. From the text:
The Morris water maze was developed to test spatial memory (Morris, 1984). The pool is divided into quadrants usually designated North, South, East and West. The water in the pool is made opaque with milk powder. Hidden just beneath the surface in one of the quadrants is a platform that serves as a escape route for rodents placed into the pool. An animal is placed some where in the pool from a variety of different start points and is timed for latency to find the platform, percent time spent in each quadrant, distance traveled and swimming speed. The animals have no visual or spatial cues in the pool and must rely on extra-maze cues, i.e., objects set up outside the pool that can be seen by the swimming animal. Through a series of trials a rat develops “place learning” or knowledge about the position of the platform based upon the extra-maze cues. The platform can be moved to a different quadrant each day combining spatial memory with working memory. This paradigm involves extinction of the prior memory and resolution of a new spatial problem.
The water maze consisted of a black plastic circular pool ca. 150 cm in diameter and 54 cm in height filled to a level of 35 cm with water made opaque with powdered milk. The pool was divided into four quadrants with a platform 10 cm in diameter submerged 2 cm below the surface in the northwest quadrant. The water was maintained at a temperature of 25° C. Around the pool were several visual cues. Above the pool was a video camera for tracking the movement of the experimental animal. The data collection was completely automated using the software developed by HVS Image (Hampton, UK). Before testing, rats were familiarized with the pool and platform placed in the northwest quadrant. Each day for 4 consecutive days, animals were placed into pool at random sites and given two min to find the platform. […] Following these familiarization trials, animals were tested for spatial navigation. The first day of testing began with the platform in the expected northwest quadrant. All behavior was videotaped for a two min observation period. After testing the animal were dried off and placed back into their home cage. On each subsequent day the platform was moved to a new quadrant and the rat started at different positions. The rat was always placed into the pool facing the sidewall. The start positions relative to the platform were different for each of the four trials; however, the platform was always in the same relative position in each quadrant. It was positioned 20 cm in from the side of the pool and in the left corner from the center facing out. The latency to find the hidden platform, path length, swim rate, and quadrant times between CLAV and vehicle treated animals were compared with a two-way, repeated measures ANOVA followed by Bonferroni post hoc tests.

In data set [2] the test system is male Wistar rats. The data set can be described thus: elevated plus-maze. The data set is classed as in vivo, rat. The source says:
The elevated plus-maze was developed for screening anxiolytic and anxiogenic drug effects in the rat (Pellow et al., 1985). The method has been validated behaviorally, physiologically, and pharmacologically. The plus-maze consists of two open arms and two enclosed arms. […] Conversely, anxiogenic compounds like yohimbin or amphetamines reduce open arm entries and time spent in the open arms.
Male Wistar rats weighing 250-300 g were group housed in a normal 12:12 light-dark cycle with light on at 0800 hr and provided food and water ad libitum. The plus-maze consisted of two open arms, 50 cm long, 10 cm wide, […]. The two closed arms had the same dimensions but included a roof. The Plexiglas for the closed arms was painted black. Each pair of arms was arranged opposite to each other to form the plus-maze. The maze was elevated to a height of 50 cm. Eighteen animals were tested in the plus-maze 90 min following the IP injection of 1.0 μg/kg CLAV, 50 or vehicle control in a volume of ca. 0.3 ml. The order of treatments was counter balanced with at least 48 hrs between injections. At the start of the experiment, the animal was placed at the end of one of the open arms. Over a five min observation period, animals were scored for the latency to enter the closed arm, time spent in the closed arm and the number of open arm entries following the first occupation of the closed arm. The study produced tables of repeated measures. The data between treatments were compared with a two-way, repeated measures ANOVA followed by Bonferroni post hoc tests.
Chlordiazepoxide (Librium®) is a commonly prescribed anxiolytic that has been thoroughly characterized in preclinical studies. The effective anxiolytic dose in the plus-maze is 10-25 mg/kg (Lister 1987; File and Aranko 1988; Shumsky and Lucki 1994). […] However, it was discovered animals develop a tolerance to the motor depression with repeated daily administration of CDP for several days (Shumsky and Lucki 1994). […] While CLAV has no effect on motor activity it was necessary to treat an equal number of rats with daily injections of CLAV (100 ng/kg) to insure a balanced experimental design. In addition there was a third group of rats (n=6) receiving daily injections of saline vehicle. The study reported in Section II tested CLAV at 1 μg/kg in the plus-maze. […] For this reason CLAV was tested at 100 ng/kg in these studies.

A further data set concerns neurogenic NAALADase. Put plainly: animal tests of neuroactivity, effective dose. The data set is classed as in vivo, hamsters and other test species.
Data set [3] deals with rats. Put plainly: Morris water maze, cue navigation. In kind it is in vivo, rat. The protocol: On the day following the last day (Day 4) of spatial navigation, animals were tested for cue navigation. In these tests, the platform was raised above water level. One hr before testing animals were treated with CLAV or saline vehicle. The same animals treated with CLAV during spatial navigation were treated with CLAV for cue navigation. Animals were run through a series of two min trials with 45 min between trials. At each trial, the platform was moved to a different quadrant. The cue navigation study was identical to the spatial navigation except the platform was visible and the testing was done over five consecutive trials done on a single day. Animals were scored for latency to find the platform, percent time spent in each quadrant, path distance and swim speed for all testing periods.

The conditions of data set [4]: in vivo, cited from earlier work.
For data set [5] the following is noted: approximately 7-10 mg/kg/day, intravenous with ticarcillin; cited from earlier work.
For data set [6], the system named is gram negative beta-lactamase enzymes. To be noted: cited from earlier work.
Data set [7] relates to male Wistar rats. Put plainly: general motor activity in an open field. The data set is classed as in vivo, rat. To be noted: 1.0 μg/kg IP, after the plus-maze test, vs vehicle. The protocol:
Immediately after each of the plus-maze tests reported above in Section II, animals were tested for general motor activity in an “open field.” Animals were placed into a large clean Plexiglas cage (48×32×40 cm) devoid of bedding. This open field was delineated into equal quadrants by tape on the underside of the cage. Animals were scored for motor activity by counting the number of quadrants traversed in 1 min.

Setting [8] is: 1.0 μg/kg IP, 90 min, vs vehicle.
The mark [9] stands for this setting: daily IP 7 days, CLAV 100 ng/kg, CDP 10 mg/kg, vs vehicle.

Where two headings read alike, the source gives them in different places.

As to `O=C(O)[C@H]1/C(=C/CO)O[C@@H]2CC(=O)N21` [CLAV, clavulanic acid], the “path length to find the platform” value in the data set on rats [1] (1.0 μg/kg, Day 1, vs vehicle) is “traveled a much shorter distance”. Besides, in the data set with rats [1] (1.0 μg/kg, any quadrant on any day), the “percentage of time spent in each quadrant vs vehicle” value is listed as “no significant difference between treatments”. The “latency to find the platform, main effect” value in the data set on rats [1] (1.0 μg/kg, one hr before testing, 4 days) is on record as “no main effect for drug treatment”. In addition, the “latency to find the platform on Days 1 and 4” value in the data set on rats [1] (1.0 μg/kg, trend towards significance) is “shorter latencies”. For the same molecule, the “learning and memory (summary)” value in the data set with rats [1] (spatial and cue navigation) was “do not show any loss in learning and memory”. For the same molecule, the “activity in the plus-maze (summary)” value with male Wistar rats [2] (1 μg/kg) is “anxiolytic activity”. In addition, in the data set with male Wistar rats [2] (setting [8]), the “latency to enter the dark (closed arm)” value is “stayed in the starting open light position longer”, the open arm entries result is given as “increased movement into the lighted open arms” and the “time spent in the open arm” value is given as “significantly increased”. In the data set on male Wistar rats [2] (daily IP 7 days, CLAV 100 ng/kg, CDP 10 mg/kg), the open arm entries entry is “no significant difference between treatments”. In the data set with male Wistar rats [2] (setting [9]), the “latency to enter the dark closed arms” value is recorded as “significantly greater” and the “time spent exposed to light in the open arms” value was “significantly greater”. In the data set with neurogenic NAALADase (i.p.), the “dose effective to inhibit neurogenic NAALADase” value is listed as “less than 1 microgram per kilogram of body weight” and the “dose showing activity similar to moxalactam (aggression, spatial learning, anxiolytic)” value was “less than 1 microgram/kg”. In addition, the “dose exhibiting dose responsive neuroactivity” value in the data set on neurogenic NAALADase (levels as low as) came out at 0.01 µg/kg. For the same molecule, the “percentage of time spent in each quadrant vs vehicle” value in the data set on rats [3] (any quadrant on any trial) is “no significant difference between treatments”. Further, in the data set with rats [3] (visible platform, five trials), the “latency to find the platform” value is given as “no main effect for treatments”. In the data set with rats [3] (vs vehicle), the “distance traveled to find the platform” value is listed as “not significantly different”. The “oral activity and stability” value in data set [4] (po) is “orally active and stable”. In addition, in data set [4], the CSF/plasma ratio is recorded as 0.25, the elimination half-life entry is on record as “just under two hours” and the “passage of the blood-brain barrier” value was “readily passes the blood-brain barrier”. The CSF/plasma ratio entry in data set [4] (listed as Clavulanic acid) is reported as “around 0.25”. Besides, the “adverse reactions or contraindications” value in data set [5] was “no reported adverse reactions or contraindications”. In data set [6], the “inhibition of gram negative beta-lactamase enzymes” value is 15 to 34 nM. Moreover, the “open field activity (quadrants traversed in 1 min)” value with male Wistar rats [7] is on record as “no significant differences”.

For `CO[C@@]1(NC(=O)C(C(=O)O)c2ccc(O)cc2)C(=O)N2C(C(=O)O)=C(CSc3nnnn3C)CO[C@@H]21` (stereo partly drawn) [Moxalactam, 7-β-[2-carboxy-2-(4-hydroxyphenyl)acetamido]-7α-methoxy-3-[[(1-methyl-1H-tetrazol-5-yl)thio]methyl]-1-oxa-1-dethia-3-cephem-4-carboxylic acid], in the data set with rats [1] (i.p. at 50 micrograms/kg, rats), the spatial learning entry is “enhances spatial learning in rats”. In addition, in the data set with male Wistar rats [2] (i.p. at 50 micrograms/kg, rats), the anxiolytic action entry is on record as “acts as an anxiolytic in rats”. In addition, in the data set with neurogenic NAALADase (administered parenterally), the “dose exhibiting significant dose responsive neuroactivity” value was “about 50 μg/kg of body weight” and the threshold effective dose entry is “about 50 βg/kg of body weight”. Besides, the “effective minimum neurogenic protease inhibiting concentration in the brain” value in the data set with neurogenic NAALADase (based on animal test data and known brain distribution) is given as “about 30 nM”. The minimum effective dose entry in the data set with neurogenic NAALADase (parenterally, hamsters and other test species) is on record as “about 50 micrograms per kg of body weight”.
